One may read the bioavailability as dose-corrected exposure relative to a reference, in per cent.

Numbered stars: 1 amine (or outer) side, 2 acyl side, 3 side chain; on linkers, the order of the positions; unused ones are H or OH. Bridge positions count the residues as written; N and C are the ends. Peptide text beside a SMILES is read from it. X1 = O=C(CCC[*:2])[*:1]

For data set [1] the following is noted: in vivo, cited from earlier work.
Data set [2] can be described thus: Stability of FE 202767 in citrate and citrate-phosphate buffers at 40° C., intact peptide by HPLC. Type of data set: physicochemical. The method, then: FE 202767 (Ferring) was synthesised by the method set out in WO2009/122285. FE 202767 was dissolved at a concentration of 0.2 mg/ml in either 25 mM citrate buffer (isotonic to saline) or 25 mM citrate-phosphate buffer (isotonic with saline) at varying pH (pH 5.0, 5.5, 6.0), by methods known in the art. The solutions were incubated at 40° C. for 176 days, with samples taken at day 0, 15, 30, 84, and 176.
Samples were evaluated by HPLC to determine the amount of intact peptide remaining at the various time points, by methods well known in the art, comparing the % Area. of the intact peptide peak on the sampling day vs. % Area on Day 0.
The HPLC method used an Agilent 1200 instrument. […] The Phenomenex MAX-RP C18, 2.0×150 mm, 4 μm, 80 Å column was at temperature 40 with UV detection at 210 nm. The injection volume was 10 μL.

Data set [3] is described as follows: Stability of FE 202767 in various buffers at 40° C./75% RH for one and three months, HPLC. Type of data set: physicochemical. The method, then:
The method was similar to Example 7. FE 202767 (Ferring) was synthesised by the method set out in WO2009/122285. The FE 202767 was dissolved at a concentration of 0.2 mg/ml in either 25 mM citrate buffer (citric acid/Na citrate), 10 mM acetate buffer (acetic acetate/Na acetate) or 10 mM succinate buffer (1 mM succinic acid+NaOH to relevant pH) at varying pH (pH 5.0, 5.2, 5.5, 5.65, 5.8, 6.0), by methods known in the art. As set out in the table below, the various samples also included isotonicity agent (NaCl, 7 mg/mL or mannitol 47 mg/mL) to achieve isotonicity. Some of the samples included […] (methionine 1 mg/mL, EDTA 1 mg/mL, or combination of EDTA 1 mg/mL and methionine 1 mg/mL). Each formulation (see Table below) was filled in a 10R glass vial sealed with a rubber stopper and an aluminium cap.
The solutions were incubated at 40° C. at 75% RH, with samples taken at day 30 (1 month), and day 90 (3 months).
Samples were evaluated by HPLC to determine the amount of intact peptide remaining at the various time points, by methods well known in the art, comparing the % Area of the intact peptide peak on the sampling day vs. % Area on Day 0.
The HPLC method used an Agilent 1100 instrument. The mobile phases where HPLC Buffers A (A=0.1% TFA in water) and B (B=0.1% TFA in acetonitrile) with the gradient 20 to 30% B in 40 min, then 30 to 60% B in 15 min, then 60 to 20% B in 1 min and then 20% B for 10 min at flow rate 0.5 mL/min. The Zorbax 300SB C16, 3.0×150 mm, 3.5 μm, 300 Å column was at temperature 25 with UV detection at 214 nm. The injection volume was 15 μL

Take `CC[C@H](C)[C@@H]1NC(=O)[C@H](Cc2ccc(OC)cc2)NC(=O)CCCSC[C@@H](C(=O)N2CCC[C@H]2C(=O)N[C@@H](CC(C)C)C(=O)NCC(N)=O)NC(=O)[C@H](CC(N)=O)NC(=O)[C@H](CCC(N)=O)NC1=O` [carbetocin, (1-desamino-1-monocarba-2(O-methyl)-tyrosine)oxytocin] (Y(Me)IQNCPLG-NH2; linker N-5 via X1): the bioavailability in data set [1] (human, im) was 80%. Also, the half-life result in data set [1] (human, iv) is “approximately 40 minutes”. The “half-life relative to the reported half-life of oxytocin” value in data set [1] (iv) is on record as 4 to 10 times longer. Further, in data set [1], the “time to peak plasma concentrations” value was “less than thirty minutes”.

As to `CC[C@H](C)[C@@H]1NC(=O)[C@H](Cc2ccc(O)cc2)NC(=O)[C@@H](N)CSSC[C@@H](C(=O)N2CCC[C@H]2C(=O)N[C@@H](CC(C)C)C(=O)NCC(N)=O)NC(=O)[C@H](CC(N)=O)NC(=O)[C@H](CCC(N)=O)NC1=O` [oxytocin], in data set [1], the reported half-life is 4 to 10 min.

Consider carba-1-[4-FBzIGly^7]dOT [FE 202767], for which the intact peptide remaining in data set [2] (after 176 days at 40° C. in citrate buffer at pH 5.0 and 5.5) was > 95%; in data set [2] (after 176 days at 40° C. in citrate-phosphate buffers, pH 5.0, 5.5 and 6.0, each condition), > 95%. The “degradation (in words)” value in data set [2] (after 176 days at 40° C. in pH 6.0 citrate buffer) is “significant degradation”. The “stability (in words)” value in data set [3] (citrate and acetate buffers in the pH range tested, after 30 days at 40° C.) is “good stability”; in data set [3] (citrate and acetate buffers in the pH range tested, after 90 days at 40° C.), “good stability”; in data set [3] (succinate buffer at pH 5.0 to 5.65, after 30 days at 40° C.) it was “very stable”; in data set [3] (succinate buffer at pH 5.0 to 5.65, after 90 days at 40° C.), “stable”.

Source of the values: patent US9566311B2, “Pharmaceutical composition” (Ferring B.V., priority 2010, dated 2017).
